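Five concentrations, 48 hours, 96-well plates. TGI: total growth inhibition.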
Assays:
Test in all cases: NCI-60 cell line screen, 48 h
MCF7 breast = test system: MCF7 breast
U251 CNS = test system: U251 CNS
SR leukemia = test system: SR leukemia
MDA-MB-231 breast = test system: MDA-MB-231 breast
SK-OV-3 ovarian = test system: SK-OV-3 ovarian
MALME-3M melanoma = test system: MALME-3M melanoma
COLO 205 colon = test system: COLO 205 colon
IGROV1 ovarian = test system: IGROV1 ovarian
SK-MEL-28 melanoma = test system: SK-MEL-28 melanoma
SK-MEL-2 melanoma = test system: SK-MEL-2 melanoma

Compound	TGI (MCF7 breast) [µM]	TGI (U251 CNS) [µM]	TGI (SR leukemia) [µM]	TGI (MDA-MB-231 breast) [µM]	TGI (SK-OV-3 ovarian) [µM]	TGI (MALME-3M melanoma) [µM]	TGI (COLO 205 colon) [µM]	TGI (IGROV1 ovarian) [µM]	TGI (SK-MEL-28 melanoma) [µM]	TGI (SK-MEL-2 melanoma) [µM]
COc1ccc2c(c1)CCCN1CCc3cc(OC)c(OC)cc3C21 (stereo not drawn)	> 100	> 100	> 100	> 100	> 100	> 100	> 100	> 100	> 100	–
COC(OC)(c1ccccc1)C(I)I	47.4	33	> 45.7	36.4	16.7	13.3	24.2	27.4	30.7	35.4
COc1cc(C2SCC(=O)N2c2ccc(Cl)cc2)cc(I)c1O (stereo not drawn)	> 100	> 100	> 100	> 100	> 100	> 100	> 23.7	> 100	> 100	> 100
CSc1nc(O)c(/C=C2\C=Nc3ccccc32)[nH]1	> 100	> 100	> 100	> 100	> 100	> 100	> 100	> 100	> 100	> 100
Cc1ccc(/C=N/Nc2nncc3ccccc23)s1	> 100	> 100	> 100	> 82	> 100	> 100	> 100	> 100	> 100	> 100
O=C(OCC1CCCN2CCCCC12)c1ccncc1 (stereo not drawn)	> 100	> 100	> 100	> 100	> 100	> 100	> 100	> 100	> 100	> 100
O=CC1OC(=O)c2cc(O)c(O)c(O)c2-c2c(cc(O)c(O)c2O)C(=O)OC1C(O)C(O)CO (stereo not drawn)	39.4	32.3	51.3	35.8	–	> 100	> 100	> 100	> 100	> 100
Cc1ccc(S(=O)(=O)/N=C(\[O-])C2=C(c3ccccc3)NN(C)c3nc4cccc[n+]4nc32)cc1	> 100	> 100	> 100	> 100	–	> 100	53.3	> 100	> 100	> 100
Cc1ccc(Nc2nc(=O)[nH]c(=O)[nH]2)cc1N=[N+]=[N-]	> 100	–	> 100	> 100	> 100	> 100	> 100	> 100	–	> 100
O=c1[nH]c(Nc2cccc(Br)c2)nc2nc[nH]c12	> 100	–	> 100	> 100	> 100	> 100	> 100	> 100	> 100	> 100
CC1(C)C[C@H](O)[C@H](O)[C@]23C(=O)O[C@H](O)[C@H]2C(C=O)=CC[C@@H]13	> 100	> 100	> 100	> 100	–	> 100	> 100	> 100	> 100	–
Nn1c(SCC(=O)NCc2ccccc2)nc2ccccc2c1=O	> 100	> 100	69	> 100	–	> 100	> 100	> 100	> 100	> 100
CCn1c(-c2ccc(C)cc2)cs/c1=N\C(P(=O)(O)O)P(=O)(O)O	> 100	> 100	> 100	> 100	> 100	> 100	> 100	> 100	> 100	–
O=C1/C(=C/c2cccs2)NC(=S)N1CN1CCOCC1	> 100	> 100	> 100	> 100	> 100	–	> 100	> 100	> 100	> 100
Nc1nc(N)c2nnn(C[C@H]3CC[C@@H](CO)C3)c2n1	> 100	> 100	> 100	> 100	> 100	> 100	> 100	> 100	> 100	–
CCOC(=O)C1(C(=O)OCC)CC(=O)[C@@]2(C1)OCC[C@H]1OC(=O)C[C@H]12	> 100	> 100	> 100	> 100	–	> 100	> 100	> 100	> 100	> 100
CC(=O)O[C@H]1CC[C@@]2(C)C(=CC[C@@H]3[C@@H]2CC[C@]2(C)c4c(cc(C#N)c(=N)n4C(C)=O)C[C@@H]32)C1	47.2	> 100	61.2	77.9	34.5	31.8	35.7	53.3	37.3	–
Cc1ccc(Nc2sc(C)cc2C#N)c([N+](=O)[O-])c1	> 100	> 100	> 100	> 100	> 100	> 100	> 100	–	> 100	–
CCOC(=O)COc1c(OC)cc(C2C3=C(COC3=O)Oc3cc4c(cc32)OCO4)cc1OC (stereo not drawn)	> 100	81.9	27.1	> 100	> 57.5	> 100	4.88	33.7	–	> 100

From PubChem BioAssay (NCI)
